20 compounds from patent publication US20060252823A1, “Isocoumarin-based inhibitors of urokinase-type plasminogen activator” (priority 2005, published 2006) can be followed below.

Counter-ions that a name gives are not always drawn. A value given as a limit tells only on which side of the number the result lay.

The target in one data set is T1, Human urokinase (Homo sapiens, UniProt P00749).
T1 construct: purchased Sigma/Aldrich
The data set can be described thus: Kinetics of human urokinase inhibition with Spectrozyme UK substrate. The class given is biochemical. Particulars: for fold improvement of Ki over 4d: compared to unsubstituted compound 4d; for Ki: human uPA, 0.1M Tris pH 8.8, 25° C., initial rate data; for binding to uPA compared to unsubstituted counterparts: qualitative comparison of dissociation constants (Table 1). On the procedure: Human urokinase (Sigma/Aldrich, St. Louis, Mo.) and Spectrozyme UK (American Diagnostica, Stamford, Conn.) were used for the kinetic studies. Enzyme activity was routinely measured in 1 ml volumes of 0.1M Tris, pH 8.8, Spectrozyme UK (10 μM to 150 μM) and 0.64 μg (3,770 units/mg protein) human urokinase. Reactions were monitored at 405 nm, 25° C., with a Perkin/Elmer Lambda S2 UV/vis spectrophotometer. Michaelis constants and Ki values were determined from initial rate data, measured at 8 to 10 substrate concentrations, by non-linear regression analysis with SigmaPlot's Enzyme Kinetics Module™ (Chicago, Ill., USA).

With `O=c1oc(OCCBr)c(Cl)c2ccccc12` [Compound 4c, 3-(2-Bromoethoxy)-4-chloroisocoumarin], the melting point (commonly the temperature of the solid-liquid transition) was in the range of 81 to 82 °C.
In the case of `O=c1oc(OCCCBr)c(Cl)c2ccc([N+](=O)[O-])cc12` [Compound 4b, 3-(3-Bromopropoxy)-4-chloro-7-nitroisocoumarin], the melting point was 131 to 134 °C. Besides, at Human urokinase, the “fold improvement of Ki over 4d” value came to 8 fold, the affinity corresponds to a Ki of 1200 nM and the “binding to uPA compared to unsubstituted counterparts” value was “improved binding”.
Take `Br.NC(S)=NCCCOc1oc(=O)c2ccccc2c1Cl` [Compound 5d, 4-Chloro-3-(3-isothioureidopropoxy)isocoumarin hydrobromide]: the melting point lay in the range of 159 to 163 °C.
The compound `Br.N=C(S)NCCOc1oc(=O)c2ccccc2c1Cl` [Compound 5c, 4-Chloro-3-(2-isothioureidoethoxy)isocoumarin hydrobromide] showed a melting point of 168 to 170 °C.
`O=c1oc(OCCCBr)c(Cl)c2ccccc12` [Compound 4d, 3-(3-Bromopropoxy)-4-chloroisocoumarin] displayed a melting point of 95 to 97 °C. In addition, at Human urokinase, the “type of inhibition of uPA” value is given as “simple competitive inhibition with no evidence of rapid inactivation” and the inhibition constant (Ki) (usually the equilibrium dissociation constant of an inhibitor or competing ligand from its target) was 9000 nM.
For the compound `Nc1ccc2cc(OCCBr)oc(=O)c2c1` [Compound 11, 7-Amino-3-(2-bromoethoxy)isocoumarin], the melting point is more than 280 °C.
The same measure, in the same setting: with `Br.N=C(S)NCCCCOc1oc(=O)c2ccccc2c1Cl` [Compound 5e, 4-Chloro-3-(4-isothioureidobutoxy)isocoumarin hydrobromide] the figure was 159 to 161 °C.
In the case of `Br.NC(S)=NCCCOc1oc(=O)c2cc(NC(=O)c3ccccc3)ccc2c1Cl` [Compound 9b, 7-Benzamido-4-chloro-3-(3-isothioureidopropoxy)isocoumarin hydrobromide], the melting point fell in the range of 203 to 204 °C. The “binding to uPA compared to unsubstituted counterparts” value at Human urokinase is reported as “did not exhibit any significant improvement in binding”.
In the case of `O=c1oc(OCCCCBr)c(Cl)c2ccccc12` [Compound 4e, 3-(4-Bromobutoxy)4-chloroisocoumarin], the melting point is 75 to 77 °C.
The same measure, in the same setting: with `Nc1ccc2c(Cl)c(OCCBr)oc(=O)c2c1` [Compound 6a, 7-Amino-3-(2-bromoethoxy)4-chloroisocoumarin] the figure was 134 to 136 °C.
On the same count and under the same terms, next, `Nc1ccc2c(Cl)c(OCCCBr)oc(=O)c2c1` [Compound 6b, 7-Amino-3-(3-bromopropoxy)-4-chloroisocoumarin]: 106 to 107 °C; `O=c1oc(OCCBr)cc2ccc([N+](=O)[O-])cc12` [Compound 10a, 3-(2-Bromoethoxy)-7-nitroisocoumarin]: 95 to 97 °C; `Br.NC(S)=NCCCOc1cc2ccc(N)cc2c(=O)o1` [Compound 7b, 7-Amino-3-(3-isothioureidopropoxy)isocoumarin hydrobromide]: 173 °C.
For the compound `N=C(N)SCCOc1oc(=O)c2ccccc2c1Cl` [Compound 5c, 4-Chloro-3-(2-isothioureidoethoxy)isocoumarin hydrobromide], affinity at Human urokinase was put at a Ki of 27 nM.
Compound `O=c1oc(OCCCBr)cc2ccc([N+](=O)[O-])cc12` [Compound 10b, 3-(3-Bromopropoxy)-7-nitroisocoumarin] registered a melting point of 112 to 113 °C.
Still for that read-out and setting: with `Br.N=C(S)NCCOc1oc(=O)c2cc(NC(=O)c3ccccc3)ccc2c1Cl` [Compound 9a, 7-Benzamido-4-chloro-3-(2-isothioureidoethoxy)isocoumarin hydrobromide] the figure was 173 to 175 °C.
`O=c1oc(OCCBr)c(Cl)c2ccc([N+](=O)[O-])cc12` [Compound 4a, 3-(2-Bromoethoxy)-4-chloro-7-nitroisocoumarin] showed a melting point of 126 to 128 °C. For the same compound, the “binding to uPA compared to unsubstituted counterparts” value at Human urokinase is listed as “improved binding”.
For `O=C(Nc1ccc2c(Cl)c(OCCBr)oc(=O)c2c1)c1ccccc1` [Compound 8a, 7-Benzamido-3-(2-bromoethoxy)-4-chloroisocoumarin], in that order: 214 to 216 °C and “markedly improved binding”.
With `O=C(Nc1ccc2c(Cl)c(OCCCBr)oc(=O)c2c1)c1ccccc1` [Compound 8b, 7-Benzamido-3-(3-bromopropoxy)-4-chloroisocoumarin], the melting point is 193 to 194 °C. Also, at Human urokinase, the “fold improvement of Ki over 4d” value was 300 fold, the inhibition constant (Ki) is 34 nM and the “binding to uPA compared to unsubstituted counterparts” value is “markedly improved binding”. In addition, on Human urokinase (in words), the dissociation constant result was “low nanomolar range”.
For `O=C(c1c(OCCCBr)oc(=O)c2ccccc12)C(F)(F)F` [Compound 10c, 3-(3-Bromopropoxy)-4-trifluoroacetylisocoumarin], the “binding to uPA compared to unsubstituted counterparts” value on Human urokinase is listed as “did not show improved binding”.
